{"source": "ChEMBL document CHEMBL4507274", "about": "(2021)", "key": {"[1]": {"molecular_target": "Activin receptor type-2B (Homo sapiens) (UniProt Q13705)", "sequence (Q13705 whole entry)": "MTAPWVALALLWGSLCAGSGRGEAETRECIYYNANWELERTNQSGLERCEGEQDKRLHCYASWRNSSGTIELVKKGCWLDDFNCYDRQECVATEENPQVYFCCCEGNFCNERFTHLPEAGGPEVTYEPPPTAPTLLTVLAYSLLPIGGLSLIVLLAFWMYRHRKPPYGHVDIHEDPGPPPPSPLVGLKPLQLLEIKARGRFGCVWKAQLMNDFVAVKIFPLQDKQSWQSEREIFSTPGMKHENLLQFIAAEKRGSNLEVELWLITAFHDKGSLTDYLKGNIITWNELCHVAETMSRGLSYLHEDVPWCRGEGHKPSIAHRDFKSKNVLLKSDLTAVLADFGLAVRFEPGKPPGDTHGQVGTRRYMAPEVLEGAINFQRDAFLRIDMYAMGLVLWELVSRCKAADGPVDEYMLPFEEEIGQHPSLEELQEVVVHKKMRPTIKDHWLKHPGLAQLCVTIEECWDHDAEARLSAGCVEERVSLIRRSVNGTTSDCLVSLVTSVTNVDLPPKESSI", "conditions": "Compound concentration 100.0 nM"}, "[2]": {"test_system": "ALK tyrosine kinase receptor (Homo sapiens), Q9UM73 [L1196M]", "conditions": "Compound concentration 100.0 nM"}, "[3]": {"molecular_target": "Mitogen-activated protein kinase kinase kinase 6 (Homo sapiens) (UniProt O95382)", "conditions": "Compound concentration 100.0 nM"}, "[4]": {"molecular_target": "Tyrosine-protein kinase BTK (Homo sapiens) (UniProt Q06187)", "conditions": "Compound concentration 100.0 nM"}, "[5]": {"molecular_target": "Serine/threonine-protein kinase Chk2 (Homo sapiens) (UniProt O96017)", "conditions": "Compound concentration 100.0 nM"}, "[6]": {"molecular_target": "Casein kinase I isoform delta (Homo sapiens) (UniProt P48730)", "sequence (P48730 whole entry, looked up, canonical isoform)": "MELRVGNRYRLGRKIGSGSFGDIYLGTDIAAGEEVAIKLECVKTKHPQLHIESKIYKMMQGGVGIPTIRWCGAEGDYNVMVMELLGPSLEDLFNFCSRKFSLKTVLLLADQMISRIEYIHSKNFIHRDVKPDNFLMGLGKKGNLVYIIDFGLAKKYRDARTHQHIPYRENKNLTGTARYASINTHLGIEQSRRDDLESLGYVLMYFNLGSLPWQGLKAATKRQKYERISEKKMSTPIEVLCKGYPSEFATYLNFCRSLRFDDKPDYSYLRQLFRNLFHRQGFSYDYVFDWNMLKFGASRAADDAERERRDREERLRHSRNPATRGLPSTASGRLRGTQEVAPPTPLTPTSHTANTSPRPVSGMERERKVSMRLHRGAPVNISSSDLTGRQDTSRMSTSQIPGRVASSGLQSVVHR", "conditions": "Compound concentration 100.0 nM"}, "[7]": {"molecular_target": "Ephrin type-A receptor 3 (Homo sapiens) (UniProt P29320)", "conditions": "Compound concentration 100.0 nM"}, "[8]": {"molecular_target": "Mitogen-activated protein kinase 3 (Homo sapiens) (UniProt P27361)", "conditions": "Compound concentration 100.0 nM"}, "[9]": {"molecular_target": "Mitogen-activated protein kinase 1 (Homo sapiens) (UniProt P28482)", "sequence (P28482 whole entry)": "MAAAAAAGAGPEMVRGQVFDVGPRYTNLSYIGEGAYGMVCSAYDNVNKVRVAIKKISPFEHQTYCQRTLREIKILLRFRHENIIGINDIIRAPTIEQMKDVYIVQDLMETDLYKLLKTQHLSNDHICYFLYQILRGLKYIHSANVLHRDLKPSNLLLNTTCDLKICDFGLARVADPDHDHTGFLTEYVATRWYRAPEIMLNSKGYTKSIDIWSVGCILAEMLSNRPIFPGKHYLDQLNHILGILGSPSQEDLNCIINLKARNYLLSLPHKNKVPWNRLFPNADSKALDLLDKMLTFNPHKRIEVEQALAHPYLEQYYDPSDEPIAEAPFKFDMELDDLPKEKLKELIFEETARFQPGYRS", "conditions": "Compound concentration 100.0 nM"}, "[10]": {"molecular_target": "Mitogen-activated protein kinase 15 (Homo sapiens) (UniProt Q8TD08)", "conditions": "Compound concentration 100.0 nM"}, "[11]": {"test_system": "Receptor-type tyrosine-protein kinase FLT3 (Homo sapiens), P36888 [D835H]", "conditions": "Compound concentration 100.0 nM"}, "[12]": {"molecular_target": "G protein-coupled receptor kinase 3 (Homo sapiens) (UniProt P35626)", "conditions": "Compound concentration 100.0 nM"}, "[13]": {"molecular_target": "Mitogen-activated protein kinase 9 (Homo sapiens) (UniProt P45984)", "sequence (P45984 whole entry, looked up)": "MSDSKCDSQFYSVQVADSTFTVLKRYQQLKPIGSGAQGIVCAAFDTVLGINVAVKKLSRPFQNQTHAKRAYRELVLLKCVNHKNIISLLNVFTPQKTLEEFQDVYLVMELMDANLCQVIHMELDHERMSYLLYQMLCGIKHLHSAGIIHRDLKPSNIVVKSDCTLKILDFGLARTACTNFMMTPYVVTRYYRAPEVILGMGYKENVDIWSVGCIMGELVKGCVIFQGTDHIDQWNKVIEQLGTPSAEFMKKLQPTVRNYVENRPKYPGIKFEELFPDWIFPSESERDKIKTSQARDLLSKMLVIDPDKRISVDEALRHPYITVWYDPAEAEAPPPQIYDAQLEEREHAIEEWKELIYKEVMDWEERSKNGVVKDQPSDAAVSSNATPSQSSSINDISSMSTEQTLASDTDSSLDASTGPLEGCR", "conditions": "Compound concentration 100.0 nM"}, "[14]": {"molecular_target": "Serine/threonine-protein kinase LATS1 (Homo sapiens) (UniProt O95835)", "conditions": "Compound concentration 100.0 nM"}, "[15]": {"molecular_target": "Serine/threonine-protein kinase STK11 (Homo sapiens) (UniProt Q15831)", "conditions": "Compound concentration 100.0 nM"}, "[16]": {"molecular_target": "Muscle, skeletal receptor tyrosine-protein kinase (Homo sapiens) (UniProt O15146)", "sequence (O15146 whole entry)": "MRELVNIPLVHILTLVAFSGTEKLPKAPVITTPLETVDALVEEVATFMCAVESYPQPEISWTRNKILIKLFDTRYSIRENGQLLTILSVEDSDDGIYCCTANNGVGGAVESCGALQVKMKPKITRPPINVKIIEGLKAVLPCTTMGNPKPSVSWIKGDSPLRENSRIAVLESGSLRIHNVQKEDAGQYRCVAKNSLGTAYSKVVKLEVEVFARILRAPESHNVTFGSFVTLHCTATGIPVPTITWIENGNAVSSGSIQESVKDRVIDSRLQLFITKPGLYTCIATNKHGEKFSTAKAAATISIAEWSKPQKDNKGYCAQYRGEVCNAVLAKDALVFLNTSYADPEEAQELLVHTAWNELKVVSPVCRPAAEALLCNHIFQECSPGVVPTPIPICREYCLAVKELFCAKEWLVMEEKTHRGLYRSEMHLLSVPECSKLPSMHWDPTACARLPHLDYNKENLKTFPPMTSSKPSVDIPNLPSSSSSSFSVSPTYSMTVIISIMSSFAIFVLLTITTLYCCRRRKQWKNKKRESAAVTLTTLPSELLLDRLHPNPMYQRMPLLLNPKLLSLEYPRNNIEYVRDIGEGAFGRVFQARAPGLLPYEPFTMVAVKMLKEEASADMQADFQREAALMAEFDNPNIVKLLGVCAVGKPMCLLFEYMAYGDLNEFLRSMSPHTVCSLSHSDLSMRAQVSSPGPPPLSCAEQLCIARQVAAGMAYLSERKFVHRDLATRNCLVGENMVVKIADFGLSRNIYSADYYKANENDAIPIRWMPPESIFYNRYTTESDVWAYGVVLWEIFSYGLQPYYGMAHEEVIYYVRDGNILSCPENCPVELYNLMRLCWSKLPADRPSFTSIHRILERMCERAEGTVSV", "conditions": "Compound concentration 100.0 nM"}, "[17]": {"molecular_target": "Serine/threonine-protein kinase Nek10 (Homo sapiens) (UniProt Q6ZWH5)", "conditions": "Compound concentration 100.0 nM"}, "[18]": {"molecular_target": "Serine/threonine-protein kinase PAK 3 (Homo sapiens) (UniProt O75914)", "conditions": "Compound concentration 100.0 nM"}, "[19]": {"molecular_target": "Serine/threonine-protein kinase PAK 5 (Homo sapiens) (UniProt Q9P286)", "conditions": "Compound concentration 100.0 nM"}, "[20]": {"test_system": "Phosphatidylinositol 4,5-bisphosphate 3-kinase catalytic subunit alpha isoform (Homo sapiens), P42336 [E545A]", "conditions": "Compound concentration 100.0 nM"}, "[21]": {"molecular_target": "Phosphatidylinositol 4,5-bisphosphate 3-kinase catalytic subunit gamma isoform (Homo sapiens) (UniProt P48736)", "conditions": "Compound concentration 100.0 nM"}, "[22]": {"molecular_target": "Serine/threonine-protein kinase pim-2 (Homo sapiens) (UniProt Q9P1W9)", "sequence (Q9P1W9 whole entry, looked up)": "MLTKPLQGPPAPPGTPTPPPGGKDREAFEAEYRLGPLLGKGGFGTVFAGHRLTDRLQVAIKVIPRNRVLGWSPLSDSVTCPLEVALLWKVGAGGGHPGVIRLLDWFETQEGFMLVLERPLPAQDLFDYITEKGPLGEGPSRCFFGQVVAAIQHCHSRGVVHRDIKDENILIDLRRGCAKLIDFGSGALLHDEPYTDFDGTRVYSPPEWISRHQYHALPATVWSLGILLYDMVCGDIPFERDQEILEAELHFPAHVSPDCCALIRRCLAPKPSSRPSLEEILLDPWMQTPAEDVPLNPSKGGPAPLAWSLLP", "conditions": "Compound concentration 100.0 nM"}, "[23]": {"molecular_target": "Serine/threonine-protein kinase N2 (Homo sapiens) (UniProt Q16513)", "conditions": "Compound concentration 100.0 nM"}, "[24]": {"molecular_target": "Protein-tyrosine kinase 2-beta (Homo sapiens) (UniProt Q14289)", "conditions": "Compound concentration 100.0 nM"}, "[25]": {"molecular_target": "Serine/threonine-protein kinase RIO3 (Homo sapiens) (UniProt O14730)", "sequence (O14730 whole entry)": "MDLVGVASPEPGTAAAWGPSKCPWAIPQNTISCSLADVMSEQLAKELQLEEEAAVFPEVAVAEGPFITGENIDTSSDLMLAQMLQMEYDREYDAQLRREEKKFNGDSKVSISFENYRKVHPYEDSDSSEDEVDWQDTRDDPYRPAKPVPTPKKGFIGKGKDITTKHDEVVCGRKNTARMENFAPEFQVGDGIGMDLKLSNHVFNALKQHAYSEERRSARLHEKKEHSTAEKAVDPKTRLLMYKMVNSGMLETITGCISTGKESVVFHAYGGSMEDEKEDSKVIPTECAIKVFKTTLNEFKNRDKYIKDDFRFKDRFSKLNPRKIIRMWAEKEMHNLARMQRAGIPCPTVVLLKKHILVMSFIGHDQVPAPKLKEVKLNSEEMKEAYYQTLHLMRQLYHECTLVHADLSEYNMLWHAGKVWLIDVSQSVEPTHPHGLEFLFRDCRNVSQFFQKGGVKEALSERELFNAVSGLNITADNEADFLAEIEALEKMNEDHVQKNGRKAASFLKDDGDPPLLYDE", "conditions": "Compound concentration 100.0 nM"}, "[26]": {"molecular_target": "Rho-associated protein kinase 2 (Homo sapiens, UniProt O75116)", "conditions": "Compound concentration 100.0 nM"}, "[27]": {"molecular_target": "T1, Serine/threonine-protein kinase Sgk1 (Homo sapiens) (UniProt O00141)", "T1 sequence (whole entry)": "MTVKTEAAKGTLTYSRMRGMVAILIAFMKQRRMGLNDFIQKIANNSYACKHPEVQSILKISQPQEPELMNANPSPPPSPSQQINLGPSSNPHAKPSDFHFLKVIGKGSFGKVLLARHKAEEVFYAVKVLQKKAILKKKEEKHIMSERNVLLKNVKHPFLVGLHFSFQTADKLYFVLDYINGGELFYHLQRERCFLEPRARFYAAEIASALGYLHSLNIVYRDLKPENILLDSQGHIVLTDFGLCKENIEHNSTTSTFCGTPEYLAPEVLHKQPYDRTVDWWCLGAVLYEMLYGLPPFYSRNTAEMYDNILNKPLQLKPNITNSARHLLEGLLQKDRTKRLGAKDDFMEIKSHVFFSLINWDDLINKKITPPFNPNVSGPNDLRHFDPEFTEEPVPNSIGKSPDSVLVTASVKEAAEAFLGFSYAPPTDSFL", "conditions": "Compound concentration 100.0 nM"}, "[28]": {"molecular_target": "Serine/threonine-protein kinase Sgk2 (Homo sapiens) (UniProt Q9HBY8)", "sequence (Q9HBY8 whole entry)": "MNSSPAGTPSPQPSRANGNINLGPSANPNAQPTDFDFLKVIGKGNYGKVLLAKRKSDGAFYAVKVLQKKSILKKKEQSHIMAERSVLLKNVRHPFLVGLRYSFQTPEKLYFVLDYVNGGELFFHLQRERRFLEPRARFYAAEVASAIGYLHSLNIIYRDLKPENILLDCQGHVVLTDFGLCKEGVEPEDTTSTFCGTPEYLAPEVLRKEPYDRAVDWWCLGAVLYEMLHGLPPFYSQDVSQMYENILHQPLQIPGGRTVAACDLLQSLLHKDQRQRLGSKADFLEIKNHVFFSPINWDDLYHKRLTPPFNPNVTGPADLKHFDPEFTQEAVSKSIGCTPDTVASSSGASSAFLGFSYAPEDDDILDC", "conditions": "Compound concentration 100.0 nM"}, "[29]": {"molecular_target": "Serine/threonine-protein kinase SIK2 (Homo sapiens) (UniProt Q9H0K1)", "conditions": "Compound concentration 100.0 nM"}, "[30]": {"molecular_target": "Serine/threonine-protein kinase 35 (Homo sapiens) (UniProt Q8TDR2)", "conditions": "Compound concentration 100.0 nM"}, "[31]": {"molecular_target": "NT-3 growth factor receptor (Homo sapiens) (UniProt Q16288)", "sequence (Q16288 32-839 limits assumed)": "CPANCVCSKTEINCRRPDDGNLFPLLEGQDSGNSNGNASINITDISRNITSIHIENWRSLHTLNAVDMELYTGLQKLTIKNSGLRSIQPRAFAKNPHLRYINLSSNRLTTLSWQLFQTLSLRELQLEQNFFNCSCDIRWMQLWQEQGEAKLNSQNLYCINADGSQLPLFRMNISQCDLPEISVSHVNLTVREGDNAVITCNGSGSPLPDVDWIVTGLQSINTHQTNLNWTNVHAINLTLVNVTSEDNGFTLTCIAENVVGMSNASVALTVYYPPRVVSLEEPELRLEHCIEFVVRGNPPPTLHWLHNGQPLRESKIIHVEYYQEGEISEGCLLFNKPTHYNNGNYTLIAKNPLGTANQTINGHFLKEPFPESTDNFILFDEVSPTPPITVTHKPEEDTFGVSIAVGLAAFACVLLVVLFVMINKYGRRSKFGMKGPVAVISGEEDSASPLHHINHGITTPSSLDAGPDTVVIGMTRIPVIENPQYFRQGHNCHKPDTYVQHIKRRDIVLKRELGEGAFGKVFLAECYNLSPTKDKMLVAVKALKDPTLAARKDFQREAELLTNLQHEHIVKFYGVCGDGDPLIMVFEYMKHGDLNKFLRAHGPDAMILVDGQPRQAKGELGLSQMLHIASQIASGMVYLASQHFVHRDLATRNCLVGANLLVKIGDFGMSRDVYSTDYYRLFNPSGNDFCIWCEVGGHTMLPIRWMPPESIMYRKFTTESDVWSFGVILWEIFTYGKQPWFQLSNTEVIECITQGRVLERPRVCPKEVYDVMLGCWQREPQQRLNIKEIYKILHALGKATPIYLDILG", "conditions": "Compound concentration 100.0 nM"}, "[32]": {"molecular_target": "Serine/threonine-protein kinase VRK2 (Homo sapiens) (UniProt Q86Y07)", "conditions": "Compound concentration 100.0 nM"}, "[33]": {"molecular_target": "Serine/threonine-protein kinase 32B (Homo sapiens) (UniProt Q9NY57)", "conditions": "Compound concentration 100.0 nM"}, "[34]": {"molecular_target": "5-hydroxytryptamine receptor 5A (Homo sapiens) (UniProt P47898)", "sequence (P47898 whole entry)": "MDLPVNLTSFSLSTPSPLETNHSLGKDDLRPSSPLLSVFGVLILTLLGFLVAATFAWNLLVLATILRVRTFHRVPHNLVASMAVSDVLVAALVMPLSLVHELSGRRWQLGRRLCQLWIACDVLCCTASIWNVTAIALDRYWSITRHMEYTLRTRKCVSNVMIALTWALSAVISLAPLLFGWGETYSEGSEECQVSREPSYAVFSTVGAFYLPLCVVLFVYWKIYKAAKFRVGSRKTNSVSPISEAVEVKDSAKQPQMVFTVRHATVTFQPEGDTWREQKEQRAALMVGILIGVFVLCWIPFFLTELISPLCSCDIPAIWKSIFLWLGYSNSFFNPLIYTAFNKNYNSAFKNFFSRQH", "conditions": "Compound concentration 10.0 uM"}}, "data": [{"smiles": "Cc1c[nH]c2nccc(Oc3c(F)cc(Nc4cc(Cl)nc(N)n4)cc3F)c12", "note": "[BAY-549]", "values": [{"measurement": "residual activity", "setting": "[1]", "value": 100, "unit": "%"}, {"measurement": "residual activity", "setting": "[2]", "value": 99, "unit": "%"}, {"measurement": "residual activity", "setting": "[3]", "value": 100, "unit": "%"}, {"measurement": "residual activity", "setting": "[4]", "value": 96, "unit": "%"}, {"measurement": "residual activity", "setting": "[5]", "value": 89, "unit": "%"}, {"measurement": "residual activity", "setting": "[6]", "value": 100, "unit": "%"}, {"measurement": "residual activity", "setting": "[7]", "value": 97, "unit": "%"}, {"measurement": "residual activity", "setting": "[8]", "value": 90, "unit": "%"}, {"measurement": "residual activity", "setting": "[9]", "value": 99, "unit": "%"}, {"measurement": "residual activity", "setting": "[10]", "value": 100, "unit": "%"}, {"measurement": "residual activity", "setting": "[11]", "value": 100, "unit": "%"}, {"measurement": "residual activity", "setting": "[12]", "value": 78, "unit": "%"}, {"measurement": "residual activity", "setting": "[13]", "value": 93, "unit": "%"}, {"measurement": "residual activity", "setting": "[14]", "value": 42, "unit": "%"}, {"measurement": "residual activity", "setting": "[15]", "value": 100, "unit": "%"}, {"measurement": "residual activity", "setting": "[16]", "value": 96, "unit": "%"}, {"measurement": "residual activity", "setting": "[17]", "value": 75, "unit": "%"}, {"measurement": "residual activity", "setting": "[18]", "value": 86, "unit": "%"}, {"measurement": "residual activity", "setting": "[19]", "value": 92, "unit": "%"}, {"measurement": "residual activity", "setting": "[20]", "value": 88, "unit": "%"}, {"measurement": "residual activity", "setting": "[21]", "value": 88, "unit": "%"}, {"measurement": "residual activity", "setting": "[22]", "value": 100, "unit": "%"}, {"measurement": "residual activity", "setting": "[23]", "value": 100, "unit": "%"}, {"measurement": "residual activity", "setting": "[24]", "value": 90, "unit": "%"}, {"measurement": "residual activity", "setting": "[25]", "value": 93, "unit": "%"}, {"measurement": "residual activity", "setting": "[26]", "value": 0.9, "unit": "%"}, {"measurement": "residual activity", "setting": "[27]", "value": 74, "unit": "%"}, {"measurement": "residual activity", "setting": "[28]", "value": 69, "unit": "%"}, {"measurement": "residual activity", "setting": "[29]", "value": 100, "unit": "%"}, {"measurement": "residual activity", "setting": "[30]", "value": 94, "unit": "%"}, {"measurement": "residual activity", "setting": "[31]", "value": 86, "unit": "%"}, {"measurement": "residual activity", "setting": "[32]", "value": 76, "unit": "%"}, {"measurement": "residual activity", "setting": "[33]", "value": 71, "unit": "%"}, {"measurement": "inhibition", "setting": "[34]", "value": -9.86, "unit": "%"}]}, {"smiles": "Cn1cc(Cl)c2c(Oc3c(F)cc(Nc4cc(Cl)nc(N)n4)cc3F)ccnc21", "note": "[BAY-4900]", "values": [{"measurement": "residual activity", "setting": "[1]", "value": 79, "unit": "%"}, {"measurement": "residual activity", "setting": "[2]", "value": 100, "unit": "%"}, {"measurement": "residual activity", "setting": "[3]", "value": 100, "unit": "%"}, {"measurement": "residual activity", "setting": "[4]", "value": 84, "unit": "%"}, {"measurement": "residual activity", "setting": "[5]", "value": 94, "unit": "%"}, {"measurement": "residual activity", "setting": "[6]", "value": 100, "unit": "%"}, {"measurement": "residual activity", "setting": "[7]", "value": 83, "unit": "%"}, {"measurement": "residual activity", "setting": "[8]", "value": 98, "unit": "%"}, {"measurement": "residual activity", "setting": "[9]", "value": 100, "unit": "%"}, {"measurement": "residual activity", "setting": "[10]", "value": 100, "unit": "%"}, {"measurement": "residual activity", "setting": "[11]", "value": 78, "unit": "%"}, {"measurement": "residual activity", "setting": "[12]", "value": 83, "unit": "%"}, {"measurement": "residual activity", "setting": "[13]", "value": 86, "unit": "%"}, {"measurement": "residual activity", "setting": "[14]", "value": 69, "unit": "%"}, {"measurement": "residual activity", "setting": "[15]", "value": 100, "unit": "%"}, {"measurement": "residual activity", "setting": "[16]", "value": 100, "unit": "%"}, {"measurement": "residual activity", "setting": "[17]", "value": 66, "unit": "%"}, {"measurement": "residual activity", "setting": "[18]", "value": 100, "unit": "%"}, {"measurement": "residual activity", "setting": "[19]", "value": 90, "unit": "%"}, {"measurement": "residual activity", "setting": "[20]", "value": 88, "unit": "%"}, {"measurement": "residual activity", "setting": "[21]", "value": 82, "unit": "%"}, {"measurement": "residual activity", "setting": "[22]", "value": 88, "unit": "%"}, {"measurement": "residual activity", "setting": "[23]", "value": 75, "unit": "%"}, {"measurement": "residual activity", "setting": "[24]", "value": 100, "unit": "%"}, {"measurement": "residual activity", "setting": "[25]", "value": 93, "unit": "%"}, {"measurement": "residual activity", "setting": "[26]", "value": 83, "unit": "%"}, {"measurement": "residual activity", "setting": "[27]", "value": 80, "unit": "%"}, {"measurement": "residual activity", "setting": "[28]", "value": 86, "unit": "%"}, {"measurement": "residual activity", "setting": "[29]", "value": 100, "unit": "%"}, {"measurement": "residual activity", "setting": "[30]", "value": 99, "unit": "%"}, {"measurement": "residual activity", "setting": "[31]", "value": 76, "unit": "%"}, {"measurement": "residual activity", "setting": "[32]", "value": 81, "unit": "%"}, {"measurement": "residual activity", "setting": "[33]", "value": 99, "unit": "%"}, {"measurement": "inhibition", "setting": "[34]", "value": 0.35, "unit": "%"}]}]}
